Experimental data taken from ChEMBL document CHEMBL5050844 (2019).

Legend:
[1] = Induction of anti-CD3/CD28 antibodies-stimulated human T cell activation at 4 uM assessed fold increase in IL-2 secretion measured by ELISA assay; format: functional, T cell line
[2] = biological target: T1, E3 ubiquitin-protein ligase CBL-B (Homo sapiens, UniProt Q13191); experiment: Binding affinity towards N-terminal biotinylated Avi-tagged human CBL-B (36 to 427 residues) measured by surface plasmon resonance assay
[3] = Induction of anti-CD3/CD28 antibodies-stimulated human T cell activation at 0.3 uM assessed fold increase in CD25 expression measured by ELISA assay; format: functional, T cell line
[4] = biological target: T1, E3 ubiquitin-protein ligase CBL-B; experiment: Inhibition of N-terminal Avi-tagged human CBL-B (36 to 427 residues) incubated with 60 nM Src kinase for 1.5 hrs followed by incubation with fluorescently labeled UbcH5B-Ub for 1 hr and measured by TR-FRET assay; format: single protein
[5] = Induction of anti-CD3/CD28 antibodies-stimulated human T cell activation at 1 uM assessed fold increase in IL-2 secretion measured by ELISA assay; format: functional, T cell line
[6] = Induction of anti-CD3 antibodies-stimulated human T cell activation at 8 uM assessed fold increase in IL-2 secretion measured by ELISA assay; format: functional, T cell line; note: reference of the scale not given here
[7] = Induction of anti-CD3 antibodies-stimulated human T cell activation at 1 uM assessed fold increase in CD25 expression measured by ELISA assay; format: functional, T cell line; note: reference of the scale not given here
[8] = Induction of anti-CD3/CD28 antibodies-stimulated human T cell activation at 4 uM assessed fold increase in CD25 expression measured by ELISA assay; format: functional, T cell line
[9] = Induction of anti-CD3 antibodies-stimulated human T cell activation at 8 uM assessed fold increase in CD25 expression measured by ELISA assay; format: functional, T cell line; note: reference of the scale not given here
[10] = Induction of anti-CD3/CD28 antibodies-stimulated human T cell activation at 1 uM assessed fold increase in CD25 expression measured by ELISA assay; format: functional, T cell line
[11] = Induction of anti-CD3 antibodies-stimulated human T cell activation at 1 uM assessed fold increase in IL-2 secretion measured by ELISA assay; format: functional, T cell line; note: reference of the scale not given here
[12] = Induction of anti-CD3/CD28 antibodies-stimulated human T cell activation at 0.3 uM assessed fold increase in IL-2 secretion measured by ELISA assay; format: functional, T cell line

T1 sequence (Q13191 whole entry, the tested form may be a part): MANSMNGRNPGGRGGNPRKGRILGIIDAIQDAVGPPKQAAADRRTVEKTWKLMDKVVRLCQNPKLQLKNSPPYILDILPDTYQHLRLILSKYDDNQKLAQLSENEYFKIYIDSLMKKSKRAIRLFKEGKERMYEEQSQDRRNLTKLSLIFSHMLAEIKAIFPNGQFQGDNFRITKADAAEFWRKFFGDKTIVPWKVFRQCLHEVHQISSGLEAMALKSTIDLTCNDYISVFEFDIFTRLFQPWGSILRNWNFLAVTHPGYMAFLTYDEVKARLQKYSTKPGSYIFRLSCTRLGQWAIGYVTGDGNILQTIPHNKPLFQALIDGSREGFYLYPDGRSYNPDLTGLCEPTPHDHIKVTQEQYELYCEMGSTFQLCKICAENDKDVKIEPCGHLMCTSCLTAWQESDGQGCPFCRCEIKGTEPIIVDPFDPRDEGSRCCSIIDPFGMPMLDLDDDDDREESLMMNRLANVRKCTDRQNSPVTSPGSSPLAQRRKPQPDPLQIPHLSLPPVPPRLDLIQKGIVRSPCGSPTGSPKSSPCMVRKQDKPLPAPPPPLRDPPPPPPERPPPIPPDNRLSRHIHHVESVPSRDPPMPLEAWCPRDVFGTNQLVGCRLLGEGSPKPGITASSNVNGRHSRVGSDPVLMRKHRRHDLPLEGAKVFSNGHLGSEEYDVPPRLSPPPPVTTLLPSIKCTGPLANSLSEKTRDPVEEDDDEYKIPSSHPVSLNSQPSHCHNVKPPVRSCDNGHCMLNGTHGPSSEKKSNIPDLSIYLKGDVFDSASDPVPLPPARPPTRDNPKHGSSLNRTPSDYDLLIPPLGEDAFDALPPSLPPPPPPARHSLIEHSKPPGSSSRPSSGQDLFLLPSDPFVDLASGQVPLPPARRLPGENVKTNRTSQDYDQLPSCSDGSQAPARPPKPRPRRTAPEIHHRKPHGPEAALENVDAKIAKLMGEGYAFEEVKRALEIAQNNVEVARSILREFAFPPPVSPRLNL

Compound	fold change (FC) [1]	Kd [2]	fold change (FC) [3]	IC50 [4]	fold change (FC) [5]	fold change (FC) [6]	fold change (FC) [7]	fold change (FC) [8]	fold change (FC) [9]	fold change (FC) [10]	fold change (FC) [11]	fold change (FC) [12]
C[C@H](Cc1nncn1C)c1cccc(N2Cc3c(cc(C(=O)N4CC[C@H](O)C4)cc3C(F)(F)F)C2=O)c1	>=7.5	< 0.1 µM	1.01	< 0.1 µM	2.51	>=0.201	0.801	1.31	>=1.001	1.01	0.151	1.01
Cn1cnnc1C(F)(F)[C@](C)(F)c1cccc(N2Cc3c(cc(CN4CC(F)C4)cc3C(F)(F)F)C2=O)c1	>=7.5	< 0.1 µM	1.01	–	5	>=0.201	0.801	1.31	>=1.001	1.01	0.101	1.01
CC(O)c1cc2c(c(C(F)(F)F)c1)CN(c1cccc([C@H](C)Cc3nncn3C)c1)C2=O (some centres not stated)	>=7.5	< 0.1 µM	1.01	< 0.1 µM	5	>=0.201	0.801	1.31	>=1.001	1.31	0.151	2.51
C[C@H](Cc1nncn1C)c1cccc(N2Cc3c(cc(N(C)[C@H]4CCNC4)cc3C(F)(F)F)C2=O)c1	>=7.5	< 0.1 µM	1.31	< 0.1 µM	2.51	>=0.201	0.801	1.51	>=1.001	1.31	0.151	2.51
Cc1c[nH]nc1-c1cc2c(c(C(F)(F)F)c1)CN(c1cccc([C@H](C)Cc3nncn3C)c1)C2=O	>=7.5	< 0.1 µM	1.31	< 0.1 µM	5	>=0.201	0.601	>=1.76	0.801	1.51	>=0.201	1.01
C[C@H](Cc1nncn1C)c1cccc(NC(=O)c2ccc(CO)c(C3CC3)n2)c1	>=7.5	< 0.1 µM	1.31	< 0.1 µM	>=7.5	>=0.201	>=1.001	1.51	>=1.001	1.51	>=0.201	>=7.5
Cc1conc1C[C@@H](C)c1cccc(N2Cc3c(cc(C(=O)N4CC[C@H](O)C4)cc3C(F)(F)F)C2=O)c1	>=7.5	< 0.1 µM	1.01	< 0.1 µM	5	>=0.201	>=1.001	1.01	>=1.001	1.01	0.101	2.51
CCOc1cc([C@H](C)Cc2nncn2C)cc(N2Cc3c(cccc3C(F)(F)F)C2=O)n1	>=7.5	< 0.1 µM	1.01	< 0.1 µM	5	>=0.201	>=1.001	1.31	>=1.001	1.31	0.151	2.51
CC(c1cc2c(c(C(F)(F)F)c1)CN(c1cccc([C@H](C)Cc3nncn3C)c1)C2=O)N1CC[C@H](O)C1 (some centres not stated)	>=7.5	< 0.1 µM	1.31	< 0.1 µM	>=7.5	>=0.201	>=1.001	1.51	>=1.001	1.31	0.151	2.51
C[C@H](Cc1nncn1C)c1cccc(N2Cc3c(cc(N[C@H]4CCNC4)cc3C(F)(F)F)C2=O)c1	2.51	< 0.1 µM	1.01	< 0.1 µM	2.51	0.151	0.801	1.01	>=1.001	1.01	0.101	1.01
C[C@@H]1[C@@H](c2nncn2C)[C@H]1c1cccc(N2Cc3c(cccc3C(F)(F)F)C2=O)c1	5	< 0.1 µM	>=1.76	< 0.1 µM	2.51	>=0.201	>=1.001	1.31	>=1.001	1.01	0.101	>=7.5
Cc1[nH]ncc1-c1cc2c(c(C(F)(F)F)c1)CN(c1cccc([C@H](C)Cc3nncn3C)c1)C2=O	>=7.5	< 0.1 µM	1.31	< 0.1 µM	5	>=0.201	0.801	1.51	>=1.001	1.51	0.151	2.51
C[C@H](Cc1nncn1C)c1cccc(N2Cc3c(cc(CN4CC[C@@H](F)C4)cc3C(F)(F)F)C2=O)c1	>=7.5	< 0.1 µM	1.01	< 0.1 µM	>=7.5	>=0.201	>=1.001	1.31	>=1.001	1.01	>=0.201	5
Cn1cnnc1CC1(c2cccc(N3Cc4c(cc(CN5CC[C@H](F)C5)cc4C4CC4)C3=O)c2)COC1	–	< 0.1 µM	1.31	< 0.1 µM	>=7.5	–	>=1.001	–	–	1.31	0.151	>=7.5
C[C@H](Cc1nncn1C)c1cccc(N2Cc3c(cc(CN4C[C@@H](O)[C@H](F)C4)cc3C(F)(F)F)C2=O)c1	>=7.5	< 0.1 µM	1.01	< 0.1 µM	>=7.5	>=0.201	>=1.001	1.31	>=1.001	1.31	>=0.201	2.51
C[C@H](Cc1nncn1C)c1cccc(NC(=O)c2cc(C(=O)N3CC(O)C(F)(F)C3)ccn2)c1 (some centres not stated)	2.51	> 10 µM	<=1	–	<=1	>=0.201	0.601	1.31	0.801	<=1	>=0.201	<=1
CCNc1cc([C@H](C)Cc2nncn2C)cc(N2Cc3c(cccc3C(F)(F)F)C2=O)n1	>=7.5	< 0.1 µM	1.31	< 0.1 µM	>=7.5	>=0.201	>=1.001	1.51	>=1.001	1.51	>=0.201	2.51
Cc1cc(C(=O)Nc2cccc([C@@](C)(F)C(F)(F)c3nncn3C)c2)nc(C2CC2)n1	>=7.5	< 0.1 µM	1.01	–	2.51	>=0.201	0.801	1.31	>=1.001	1.31	0.101	1.01
C[C@H](c1cc2c(c(C(F)(F)F)c1)CN(c1cccc(C3([C@@H](F)c4nncn4C)COC3)c1)C2=O)N1CCC2(CC2)C1	–	< 0.1 µM	>=1.76	< 0.1 µM	>=7.5	–	>=1.001	–	–	>=1.76	>=0.201	>=7.5
